A word on the EC50: it is the concentration needed to bring the measured effect to its halfway point.

These results are taken from patent US8993523B2, “Dimeric IAP inhibitors” (Novartis AG, priority 2010, dated 2015).

Bounds are passed on as bounds.

One assay concerns the target T1, cIAP1-BIR3 (Homo sapiens, UniProt Q13490).
T1 construct: with either 100 nM XIAP-BIR3 or 6 nM cIAP1-BIR3
The assay is described as follows: Biacore SPR solution inhibition (competition with smac7mer peptide) binding assay, cIAP1-BIR3. As to conditions: 6 nM cIAP1-BIR3, competition with immobilised smac7mer peptide, 25° C.; read-out: CIAP-BIR3 Binding Biacore (Competitive) EC50. The source says:
(§1) The present method includes utility of a Surface plasmon resonance (SPR)-based biosensor (Biacore™ GE Healthcare, Uppsala, Sweden) to examine competition between the compounds of the present invention and smac7mer peptide for XIAP-BIR3 and cIAP1-BIR3 binding groove occupancy.
(§2) Biacore™ utilizes the phenomenon of surface plasmon resonance (SPR) to detect and measure binding interactions. In a typical Biacore experiment, one of the interacting molecules is immobilized on a flexible dextran matrix while the interacting partner is flowed over the derivatized surface. A binding interaction results in an increase in mass on the sensor surface and a corresponding direct change in the refractive index of the medium in the vicinity of the sensor surface. Changes in refractive index or signal are recorded in resonance units (R.U.) Signal changes due to association and dissociation of complexes are monitored in a non-invasive manner, continuously and in real-time, the results of which are reported in the form of a sensorgram.
(§3) Solution Inhibition Assay Format:
(§4) Biacore™ T100 (GE Healthcare, Uppsala, Sweden) was used to conduct all experiments reported herein. Sensor surface preparation and interaction analyses were performed at 25° C. Buffer and Biacore reagents were purchased from GE Healthcare. Running buffer containing 10 mM Hepes, pH7.4, 150 mM sodium chloride, 1.25 mM Dithiothreitol, 2% Dimethyl sulfoxide and 0.05% polysorbate 20 was utilized throughout all experiments.
(§5) Biotinylated smac7mer peptide was diluted to 10 nM in running buffer and captured onto a sensor surface pre-derivatized with streptavidin (sensor chip SA) towards peptide surface densities in the range 40-100 R.U. Peptide captured surfaces were blocked with 500 μM PEO2-Biotin (Thermo Scientific).
(§6) Interaction analyses were performed by first equilibrating each compound within a six point seven fold compound dilution series in the range 1 μM to 0.06 nM with either 100 nM XIAP-BIR3 or 6 nM cIAP1-BIR3 for at least one hour during instrument start-up procedures. Protein compound mixtures were then injected over reference and smac7mer peptide surfaces in series for 60 seconds at a flow-rate of 60 μL/min. Surface regeneration was performed at the end of each analysis cycle by a 30 second injection of 10 mM Glycine, pH 2.5, 1M Sodium Chloride, 0.05% polysorbate 20. Additionally, control compound samples and control XIAP-BIR3 or cIAP1-BIR3 samples were prepared and run at regular intervals to monitor surface and assay performance.
(§7) Data analyses were carried out using Biacore™ T100 evaluation software v2.0 to validate assay quality. Binding level report points were plotted versus logarithmic compound concentration values and analyzed in Graphpad prism 5 via non-linear regression using a one-site competition model. EC50 values were generated and used as a measure of inhibitor potency.
(Surface plasmon resonance follows binding to a sensor surface in real time, without labels.)

Another assay deals with Panc3.27 tumor cells. The assay is described as follows: Cellular assay: Panc3.27 tumor cell proliferation (Cell Titer Glo). The class given is cell-based. Particulars: Panc3.27 cells, 72 hour treatment, read-out: PANC proliferation IC50. The method, then:
Cellular Assay—Treatment of Panc3.27 Tumor Cells with Dimeric IAP Antagonists
On day one adherent Panc3.27 cells are plated into two 96-well, clear, flat bottom plates. All wells in row A contain 90 uL of media. All wells in rows B-G contain a total volume of 90 uL per well and 4000 cells per well for Panc3.27 cell lines. Plates are then incubated overnight for 18 hours at 37° C., 5% CO2.
On day two cells are treated with the compounds of formula M-L-M′. Treatments are done in triplicate. The compounds are first serially diluted in DMSO and then added to media giving a final concentration of 0.2% DMSO when added to cells. Cells are treated with 10 uL of serially diluted compounds of formula M-L-M′ at a final concentration of 1000 nM, 200 nM, 40 nM, 8 nM, 1.6 nM, 0.32 nM, 0.06 nM, 0.013 nM, 0.0026 nM, and one untreated well. Plate two is used as a time zero plate.
To measure cell viability 50 uL of Cell Titer Glo (CTG) solution is added to row A, media only and B, cells and media. CTG is purchased from Promega Corporation catalog number G7573. The solution is prepared according to manufacturer's instructions. CTG measures the amount of ATP released from viable cells that is proportional to the number of cells in each well. After incubating for ten minutes with CTG plates are measured on a luminescent reader at 700 nm wavelength. Read time is approximately one second per well for a 96-well plate.
On day five 50 uL of CTG is added to plate one, rows A-G, incubated for 10 minutes at room temperature and read on a luminescent reader. Raw data is adjusted to account for the time zero plate as well as background noise. Triplicate values are averaged and percent control growth is calculated. Percent control growth is calculated using the following logical test: If well read data point (a) is greater than time zero data point (t=0), then 100*[(a)−(t=0)]/[(72 hour total growth)−(t=0)], OR 100*[(a)−(t=0)]/[(t=0)]. Data is represented by line graph with the concentration of compound on the x axis and percent control growth on the y axis.

The next assay concerns the target T2, XIAP-BIR3 (Homo sapiens, UniProt P98170).
T2 construct: with either 100 nM XIAP-BIR3 or 6 nM cIAP1-BIR3
The assay is described as follows: Biacore SPR solution inhibition (competition with smac7mer peptide) binding assay, XIAP-BIR3. As to conditions: 100 nM XIAP-BIR3, competition with immobilised smac7mer peptide, 25° C.; read-out: XIAP-BIR3 Binding Biacore (Competitive) EC50.
Description: as §1, §2, §3, §4, §5, §6, §7

T2 sequence (P98170 241-356 limits assumed): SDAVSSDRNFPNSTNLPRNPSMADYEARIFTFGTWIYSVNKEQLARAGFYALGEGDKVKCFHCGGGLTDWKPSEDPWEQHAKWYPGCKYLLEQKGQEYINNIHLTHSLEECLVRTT
T1 sequence (Q13490 260-352 limits assumed): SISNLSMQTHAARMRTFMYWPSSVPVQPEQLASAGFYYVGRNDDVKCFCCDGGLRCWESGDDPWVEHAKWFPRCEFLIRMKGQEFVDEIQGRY

Turning to `CN[C@@H](C)C(=O)N[C@H](C(=O)N1CCC[C@H]1c1cncc(-n2cc(C(=O)NCc3ccc(CNC(=O)c4cn(-c5cncc([C@@H]6CCCN6C(=O)[C@@H](NC(=O)[C@H](C)NC)C(C)C)c5)c5ccccc45)cc3)c3ccccc32)c1)C(C)C` [Example 2P, (S,S,S)—N,N′-(1,4-phenylenebis(methylene))bis(1-(5-((S)-1-((S)-3-methyl-2-((S)-2-(methylamino)propanamido)butanoyl)pyrrolidin-2-yl)pyridin-3-yl)-1H-indole-3-carboxamide)], the EC50 at cIAP1-BIR3 lay within 1.21 to 1.23 nM; on XIAP-BIR3, 70.9 to 71 nM. In addition, in the assay on Panc3.27 tumor cells, the IC50 is below 0.0026 nM.

`CN[C@@H](C)C(=O)N[C@H](C(=O)N1CCC[C@H]1c1cncc(-n2cc(C(=O)N3CC4(C3)CN(C(=O)c3cn(-c5cncc([C@@H]6CCCN6C(=O)[C@@H](NC(=O)[C@H](C)NC)C(C)C)c5)c5ccccc35)C4)c3ccccc32)c1)C(C)C` [Example 2N, (2S,2′S)—N,N′-((2S,2′S)-1,1′-((2S,2′S)-2,2′-(5,5′-(3,3′-(2,6-diazaspiro[3.3]heptane-2,6-diylbis(oxomethylene))bis(1H-indole-3,1-diyl))bis(pyridine-5,3-diyl))bis(pyrrolidine-2,1-diyl))bis(3-methyyl-1-oxobutane-2,1-diyl))bis(2-(methylamino)propanamide)]: the EC50 was in the range of 0.57 to 0.68 nM at cIAP1-BIR3 and 32.6 to 33.3 nM on XIAP-BIR3. Also, the IC50 with Panc3.27 tumor cells is 7.04 to 8.37 nM.

With `CN[C@@H](C)C(=O)N[C@H](C(=O)N1CCC[C@H]1c1cncc(-n2cc(C(=O)NCCNC(=O)c3cn(-c4cncc([C@@H]5CCCN5C(=O)[C@@H](NC(=O)[C@H](C)NC)C(C)C)c4)c4ccccc34)c3ccccc32)c1)C(C)C` [Example 2F, (S,S,S)—N,N′-(ethane-1,2-diyl)bis(1-(5-((S)-1-((S)-3-methyl-2-((S)-2-(methylamino)propanamido)butanoyl)pyrrolidin-2-yl)pyridin-3-yl)-1H-indole-3-carboxamide)], the 50% effective concentration (EC50) at cIAP1-BIR3 is 0.21 to 0.86 nM; on XIAP-BIR3, 23.5 to 55.2 nM. Moreover, the IC50 with Panc3.27 tumor cells lay in the range of 0.08 to 0.28 nM.

For `CN[C@@H](C)C(=O)N[C@H](C(=O)N1CCC[C@H]1c1cncc(-n2cc(C(=O)NCCCOCCOCCCNC(=O)c3cn(-c4cncc([C@@H]5CCCN5C(=O)[C@@H](NC(=O)[C@H](C)NC)C(C)C)c4)c4ccccc34)c3ccccc32)c1)C(C)C` [Example 2E, (S,S,S)—N,N′-(3,3′-(ethane-1,2-diylbis(oxy))bis(propane-3,1-diyl))bis(1-(5-((S)-1-((S)-3-methyl-2-((S)-2-(methylamino)propanamido)butanoyl)pyrrolidin-2-yl)pyridin-3-yl)-1H-indole-3-carboxamide)], the results for the concentration for a half-maximal effect (EC50) on cIAP1-BIR3 and at XIAP-BIR3 were 0.52 to 1.83 nM and 47 to 54 nM, respectively. Also, the IC50 in the assay with Panc3.27 tumor cells was 0.26 to 0.44 nM.

`CN[C@@H](C)C(=O)N[C@H](C(=O)N1CCC[C@H]1c1cncc(-n2cc(C(=O)NCCCOCCOCCOCCOCCOCCCNC(=O)c3cn(-c4cncc([C@@H]5CCCN5C(=O)[C@@H](NC(=O)[C@H](C)NC)C(C)C)c4)c4ccccc34)c3ccccc32)c1)C(C)C` [Example 2B, (S,S,S)—N,N′-(4,7,10,13,16-pentaoxanonadecane-1,19-diyl)bis(1-(5-((S)-1-((S)-3-methyl-2-((S)-2-(methylamino)propanamido)butanoyl)pyrrolidin-2-yl)pyridin-3-yl)-1H-indole-3-carboxamide)]: the EC50 on cIAP1-BIR3 is 0.51 to 1.04 nM; on XIAP-BIR3, 51.2 to 59.4 nM. For the same compound, in the assay with Panc3.27 tumor cells, the IC50 lay in the range of 0.02 to 0.21 nM.

In the case of `CN[C@@H](C)C(=O)N[C@H](C(=O)N1CCC[C@H]1c1cncc(-n2cc(C(=O)NCc3ccc(-c4ccc(CNC(=O)c5cn(-c6cncc([C@@H]7CCCN7C(=O)[C@@H](NC(=O)[C@H](C)NC)C(C)C)c6)c6ccccc56)cc4)cc3)c3ccccc32)c1)C(C)C` [Example 2G, (S,S,S)—N,N′-(biphenyl-4,4′-diylbis(methylene))bis(1-(5-((S)-1-((S)-3-methyl-2-((S)-2-(methylamino)propanamido)butanoyl)pyrrolidin-2-yl)pyridin-3-yl)-1H-indole-3-carboxamide)], the values for the concentration giving a half-maximal response (EC50) at cIAP1-BIR3 and at XIAP-BIR3 were 2.24 to 2.27 nM and 47.9 to 51.6 nM, respectively. In addition, in the assay with Panc3.27 tumor cells, the IC50 was below 0.0026 nM.

As to `[2H]C([2H])([2H])N[C@@H](C)C(=O)N[C@H](C(=O)N1CCC[C@H]1c1cncc(-n2ccc3c(C(=O)NCCCOCCOCCCNC(=O)c4cccc5c4ccn5-c4cncc([C@@H]5CCCN5C(=O)[C@@H](NC(=O)[C@H](C)NC([2H])([2H])[2H])C(C)C)c4)cccc32)c1)C(C)C` [Example 3A, (S,S,S)—N,N′-(3,3′-(ethane-1,2-diylbis(oxy))bis(propane-3,1-diyl))bis(1-(5-((S)-1-((S)-3-methyl-2-((S)-2-(trideuteromethylamino)propanamido)butanoyl)-pyrrolidin-2-yl)pyridin-3-yl)-1H-indole-4-carboxamide)], the EC50 at cIAP1-BIR3 amounted to 0.59 nM; at XIAP-BIR3, 44.7 nM. Also, the IC50 in the assay with Panc3.27 tumor cells was in the range of 0.12 to 0.17 nM.

With `CN[C@@H](C)C(=O)N[C@H](C(=O)N1CCC[C@H]1c1cncc(-n2cc(C(=O)N[C@H]3CC[C@H](NC(=O)c4cn(-c5cncc([C@@H]6CCCN6C(=O)[C@@H](NC(=O)[C@H](C)NC)C(C)C)c5)c5ccccc45)CC3)c3ccccc32)c1)C(C)C` [Example 2M, 1-(5-((S)-1-((S)-3-methyl-2-((S)-2-(methylamino)propanamido)-butanoyl)pyrrolidin-2-yl)pyridin-3-yl)-N-((1S,4S)-4-(1-(5-((S)-1-((S)-3-methyl-2-((S)-2-(methylamino)propanamido)butanoyl)pyrrolidin-2-yl)pyridin-3-yl)-1H-indole-3-carboxamido)cyclohexyl)-1H-indole-3-carboxamide], the 50% effective concentration (EC50) at cIAP1-BIR3 was in the range of 0.7 to 0.71 nM; on XIAP-BIR3, 26.1 to 26.4 nM. Also, the IC50 in the assay on Panc3.27 tumor cells was below 0.0026 nM.

On to “(S,S,S)—N,N′-(propane-1,3-diyl)bis(1-(5-((S)-1-((S)-3-methyl-2-((S)-2-(methylamino)propanamido)butanoyl)pyrrolidin-2-yl)pyridin-3-yl)-1H-indole-3-carboxamide) [Example 2A]”, for which the 50% effective concentration (EC50) lay in the range of 0.6 to 1.1 nM on cIAP1-BIR3 and 49.8 to 52.2 nM at XIAP-BIR3. Also, the IC50 in the assay on Panc3.27 tumor cells is 0.14 to 2.86 nM.

Regarding `CN[C@@H](C)C(=O)N[C@H](C(=O)N1CCC[C@H]1c1cncc(-n2cc(C(=O)NCCCOCCOCCOCCCNC(=O)c3cn(-c4cncc([C@@H]5CCCN5C(=O)[C@@H](NC(=O)[C@H](C)NC)C(C)C)c4)c4ccccc34)c3ccccc32)c1)C(C)C` [Example 2C, (S,S,S)—N,N′-(3,3′-(2,2′-oxybis(ethane-2,1-diyl)bis(oxy))bis(propane-3,1-diyl))bis(1-(5-((S)-1-((S)-3-methyl-2-((S)-2-(methylamino)propanamido)-butanoyl)pyrrolidin-2-yl)pyridin-3-yl)-1H-indole-3-carboxamide)], the figures for the EC50 at cIAP1-BIR3 and at XIAP-BIR3 were 0.97 to 0.98 nM and 42 to 79.9 nM, respectively. Also, in the assay with Panc3.27 tumor cells, the IC50 lay in the range of 0.1 to 0.27 nM.
